Assays:
Plasmodium falciparum = assay: Antiplasmodial activity against Plasmodium falciparum W2 assessed as reduction in plasmodial growth after 48 hrs by fluorescence based analysis; format: functional, organism-based; conditions: W2, 48 h
[1] = Cytotoxicity against African green monkey Vero cells assessed as reduction in cell viability incubated for 24 hrs by MTT assay; format: toxicity, cell-based; conditions: African green monkey (Chlorocebus sabaeus)

SMILES | IC50 (Plasmodium falciparum) | IC50 at 24 h [1]
CCN(CC)c1ccc2c(c1)C(=O)N(CC(=O)NCCCCNc1ccnc3cc(Cl)ccc13)C2=O | 1.17 µM | 46.9 µM
CCN(CC)c1ccc2c(c1)C(=O)N(CC(=O)NCCCCCCNc1ccnc3cc(Cl)ccc13)C2=O | 1.22 µM | > 187 µM
O=C(CN1C(=O)c2ccc(F)cc2C1=O)NCCCCCCNc1ccnc2cc(Cl)ccc12 | 1.49 µM | > 207 µM
O=C(CCN1C(=O)c2ccccc2C1=O)NCCCCCCCCNc1ccnc2cc(Cl)ccc12 | 0.15 µM | > 198 µM
O=C(CN1C(=O)c2ccc(F)cc2C1=O)NCCNc1cccc2cc(Cl)ccc12 | 1.99 µM | > 235 µM
O=C(CCN1C(=O)c2ccccc2C1=O)NCCCCNc1ccnc2cc(Cl)ccc12 | 0.41 µM | > 222 µM
O=C(CN1C(=O)c2ccc(N3CCN(CCO)CC3)cc2C1=O)NCCCCCCNc1ccnc2cc(Cl)ccc12 | 0.46 µM | > 169 µM
O=C(CCCN1C(=O)c2ccccc2C1=O)NCCCCCCNc1ccnc2cc(Cl)ccc12 | 1.57 µM | > 203 µM
O=C(CN1C(=O)c2ccccc2C1=O)NCCCCNc1ccnc2cc(Cl)ccc12 | 3.66 µM | > 229 µM
O=C(CN1C(=O)c2ccc(N3CCN(CCO)CC3)cc2C1=O)NCCNc1ccnc2cc(Cl)ccc12 | 1.04 µM | > 186 µM
O=C(CN1C(=O)c2ccccc2C1=O)NCCCCCCCCNc1ccnc2cc(Cl)ccc12 | 0.24 µM | > 203 µM
O=C(CCCN1C(=O)c2ccccc2C1=O)NCCCCCCCCNc1ccnc2cc(Cl)ccc12 | 0.58 µM | 102 µM
O=C(CCN1C(=O)c2ccc(N3CCOCC3)cc2C1=O)NCCNc1ccnc2cc(Cl)ccc12 | 0.13 µM | 26.5 µM
O=C(CCN1C(=O)c2ccc(N3CCOCC3)cc2C1=O)NCCCCCCNc1ccnc2cc(Cl)ccc12 | 0.64 µM | > 178 µM
O=C(CCN1C(=O)c2ccc(F)cc2C1=O)NCCNc1ccnc2cc(Cl)ccc12 | 0.36 µM | 93.2 µM
CCN(CC)c1ccc2c(c1)C(=O)N(CCC(=O)NCCCCNc1ccnc3cc(Cl)ccc13)C2=O | 0.26 µM | 84.4 µM
O=C(CN1C(=O)c2ccccc2C1=O)NCCNc1ccnc2cc(Cl)ccc12 | 5.65 µM | > 245 µM
O=C(CCN1C(=O)c2ccc(N3CCN(CCO)CC3)cc2C1=O)NCCCCNc1ccnc2cc(Cl)ccc12 | 0.14 µM | 169 µM
O=C(CN1C(=O)c2ccc(N3CCN(CCO)CC3)cc2C1=O)NCCCCNc1ccnc2cc(Cl)ccc12 | 0.86 µM | > 177 µM
O=C(CCN1C(=O)c2ccccc2C1=O)NCCCCCCNc1ccnc2cc(Cl)ccc12 | 0.29 µM | 87.5 µM
CCN(CC)c1ccc2c(c1)C(=O)N(CCC(=O)NCCCCCCNc1ccnc3cc(Cl)ccc13)C2=O | 0.53 µM | > 182 µM
O=C(CN1C(=O)c2ccc(N3CCOCC3)cc2C1=O)NCCNc1ccnc2cc(Cl)ccc12 | 3.21 µM | > 203 µM
CCN(CC)c1ccc2c(c1)C(=O)N(CC(=O)NCCNc1ccnc3cc(Cl)ccc13)C2=O | 1.14 µM | 44.4 µM
O=C(CN1C(=O)c2ccccc2C1=O)NCCCCCCNc1ccnc2cc(Cl)ccc12 | 3.35 µM | 248 µM
O=C(CCN1C(=O)c2ccccc2C1=O)NCCNc1ccnc2cc(Cl)ccc12 | 0.3 µM | > 237 µM
O=C(CN1C(=O)c2ccc(F)cc2C1=O)NCCCCNc1ccnc2cc(Cl)ccc12 | 1.05 µM | > 220 µM
O=C(CCN1C(=O)c2ccc(N3CCN(CCO)CC3)cc2C1=O)NCCCCCCNc1ccnc2cc(Cl)ccc12 | 0.18 µM | > 165 µM
O=C(CCCN1C(=O)c2ccccc2C1=O)NCCCCNc1ccnc2cc(Cl)ccc12 | 0.84 µM | > 215 µM
CCN(CC)c1ccc2c(c1)C(=O)N(CCC(=O)NCCNc1ccnc3cc(Cl)ccc13)C2=O | – | 203 µM
O=C(CCN1C(=O)c2ccc(N3CCN(CCO)CC3)cc2C1=O)NCCNc1ccnc2cc(Cl)ccc12 | 0.28 µM | –
